Results as given in BindingDB's records for doi:10.1021/jm9700171 (Washington University, 1998).

Molecular target: Substance-P receptor (Bos taurus)
Test: Binding affinity was measured against the Tachykinin receptor 1 in bovine retina using [3H]SP

Row | IC50 | Structure (SMILES)
1 | 25.7 nM | Cc1cc(C)cc(C(=O)N[C@H]2CCN(C(=O)c3cc(Cl)cc(Cl)c3)[C@H](Cc3ccccc3)C2)c1
2 | 15.1 nM | Cc1cc(C)cc(C(=O)N2CC[C@H](NCCc3ccccc3)C[C@H]2Cc2ccccc2)c1 [CGP-47899]
